Results published in ChEMBL document CHEMBL1201862, “PubChem BioAssay data set” (2004).
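Values below derive from 48-hour exposures of cells grown in 96-well plates, with endpoints linearly interpolated between the two concentrations bracketing the appropriate inhibition level. At the GI50, growth is halved.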 The source made the active and inactive calls. Rule as the data show it: active = GI50 up to about 1.1 µM and inactive = higher.

Assays:
Test in all cases: inhibition of tumour cell growth, NCI panel, 48 h
HCT-116 = system: HCT-116
NCI/ADR-RES = system: NCI/ADR-RES
CAKI-1 = system: CAKI-1
MDA-MB-435 = system: MDA-MB-435
NCI-H460 = system: NCI-H460
A549 = system: A549
SN12C = system: SN12C
RPMI-8226 = system: RPMI-8226
MDA-MB-231 = system: MDA-MB-231
786-0 = system: 786-0
PC-3 = system: PC-3
TK-10 = system: TK-10
UACC-257 = system: UACC-257
HT-29 = system: HT-29
OVCAR-5 = system: OVCAR-5
OVCAR-8 = system: OVCAR-8
HL-60 = system: HL-60
RXF 393 = system: RXF 393
T47D = system: T47D

Measured: GI50

CC(C)(C)[Si](C)(C)OCC1OC(n2ccc(=O)[nH]c2=O)C(O[Si](C)(C)C(C)(C)C)[C@]12O[C@@H]2CO (stereo partly drawn)
inactive: HCT-116 11.3 µM | NCI/ADR-RES 17.4 µM | CAKI-1 20.4 µM | MDA-MB-435 16 µM | NCI-H460 14 µM | A549 10.9 µM | SN12C 15.7 µM | RPMI-8226 55.3 µM | MDA-MB-231 19.5 µM | 786-0 18.2 µM | PC-3 4.58 µM | TK-10 14.8 µM | UACC-257 18.2 µM | HT-29 10.6 µM | OVCAR-5 17.5 µM | OVCAR-8 29 µM

CCc1cccc(C)c1NC(=O)CCc1nnc2s/c(=C\c3cccc4ccccc34)c(=O)n12
inactive: HCT-116 57.1 µM | CAKI-1 > 100 µM | HL-60 44.6 µM | NCI-H460 > 100 µM | A549 > 100 µM | RXF 393 > 100 µM | SN12C > 100 µM | RPMI-8226 23.8 µM | 786-0 > 100 µM | TK-10 > 100 µM | UACC-257 > 100 µM | HT-29 > 100 µM | OVCAR-5 > 100 µM | OVCAR-8 > 100 µM

CC(CC(C)(C)[N+](C)(C)C)[N+](C)(C)C (stereo not drawn)
inactive: HCT-116 > 100 µM | NCI/ADR-RES > 100 µM | CAKI-1 > 100 µM | HL-60 > 100 µM | NCI-H460 > 100 µM | A549 > 100 µM | RXF 393 > 100 µM | SN12C > 100 µM | RPMI-8226 > 100 µM | 786-0 > 100 µM | PC-3 > 100 µM | TK-10 > 100 µM | UACC-257 > 100 µM | HT-29 > 100 µM | OVCAR-5 > 100 µM | OVCAR-8 > 100 µM

Nc1nc(CC2(O)CCCCC2)cc(-c2ccccc2)n1
inactive: HCT-116 19.8 µM | CAKI-1 51.2 µM | HL-60 15.6 µM | NCI-H460 24.3 µM | A549 26.7 µM | RXF 393 > 40.3 µM | SN12C 20.3 µM | RPMI-8226 23.6 µM | 786-0 21 µM | TK-10 > 61.8 µM | UACC-257 36.3 µM | HT-29 16.6 µM | OVCAR-5 20.9 µM | OVCAR-8 > 50.2 µM

Cc1ccc(SSc2ccc(C)cc2C(=O)O)c(C(=O)O)c1
inactive: CAKI-1 > 100 µM | HL-60 > 100 µM | NCI-H460 > 100 µM | A549 > 100 µM | RXF 393 > 100 µM | SN12C > 100 µM | 786-0 > 100 µM | TK-10 > 100 µM | UACC-257 > 100 µM | HT-29 > 100 µM | OVCAR-5 > 100 µM | OVCAR-8 > 100 µM

FC1OC2OC1C(OCc1ccccc1)C(OCc1ccccc1)C2OCc1ccccc1 (stereo not drawn)
inactive: HCT-116 25.3 µM | CAKI-1 35.5 µM | HL-60 24.9 µM | NCI-H460 > 100 µM | A549 72.8 µM | RXF 393 > 100 µM | SN12C 58.6 µM | RPMI-8226 22.9 µM | 786-0 43.2 µM | TK-10 52.8 µM | UACC-257 35.5 µM | HT-29 34.8 µM | OVCAR-5 > 100 µM | OVCAR-8 35.4 µM

COC(=O)c1cc(OCc2cc(OCc3ccc(Br)cc3)cc(OCc3ccc(Br)cc3)c2)cc(OCc2cc(OCc3ccc(Br)cc3)cc(OCc3ccc(Br)cc3)c2)c1
inactive: HCT-116 > 100 µM | NCI/ADR-RES > 100 µM | CAKI-1 > 100 µM | MDA-MB-435 > 100 µM | NCI-H460 > 100 µM | A549 > 100 µM | SN12C > 100 µM | RPMI-8226 > 100 µM | MDA-MB-231 > 100 µM | 786-0 > 100 µM | PC-3 > 100 µM | TK-10 > 100 µM | UACC-257 > 100 µM | T47D > 100 µM | OVCAR-5 > 100 µM

C[Si](C)(C)C1(Sc2ccccc2)SCCCS1
inactive: HCT-116 21.3 µM | CAKI-1 54.6 µM | HL-60 12 µM | NCI-H460 52.8 µM | A549 31.9 µM | RXF 393 32.5 µM | SN12C 27 µM | RPMI-8226 24.6 µM | 786-0 46.5 µM | TK-10 > 100 µM | UACC-257 38.7 µM | HT-29 38.5 µM | OVCAR-5 > 100 µM | OVCAR-8 33.8 µM

CCSCN(C)c1nc(N(C)C)nc(N(C)C)n1
inactive: HCT-116 54.7 µM | CAKI-1 68.2 µM | HL-60 29.9 µM | NCI-H460 39.8 µM | A549 55.2 µM | RXF 393 14.2 µM | SN12C 77.6 µM | RPMI-8226 49.1 µM | 786-0 36.7 µM | TK-10 > 100 µM | UACC-257 43 µM | HT-29 36.5 µM | OVCAR-5 > 100 µM | OVCAR-8 81.5 µM

CC(=O)Oc1c(C)n(CCCl)ccc1=O
inactive: HCT-116 > 100 µM | CAKI-1 > 100 µM | HL-60 > 100 µM | NCI-H460 44.6 µM | A549 > 100 µM | RXF 393 > 100 µM | SN12C > 100 µM | RPMI-8226 > 100 µM | 786-0 > 100 µM | TK-10 22.5 µM | UACC-257 > 100 µM | HT-29 > 100 µM | OVCAR-5 56.6 µM | OVCAR-8 > 100 µM

COC(=O)C(C#CCCCCC#CC(NC(=O)OCc1ccccc1)(C(=O)OC)C(F)(F)F)(NC(=O)OCc1ccccc1)C(F)(F)F (stereo not drawn)
inactive: HCT-116 97.9 µM | CAKI-1 > 100 µM | HL-60 > 100 µM | NCI-H460 > 100 µM | A549 73.6 µM | RXF 393 > 100 µM | SN12C > 100 µM | RPMI-8226 4.36 µM | 786-0 > 100 µM | TK-10 > 100 µM | UACC-257 > 100 µM | HT-29 > 100 µM | OVCAR-5 > 100 µM | OVCAR-8 > 100 µM

COc1ccc(-n2sc3ncc(-c4ccccc4)cc3c2=O)cc1
inactive: HCT-116 23.1 µM | NCI/ADR-RES 72.9 µM | CAKI-1 27.4 µM | MDA-MB-435 40.6 µM | HL-60 20.5 µM | NCI-H460 > 100 µM | A549 35.9 µM | RXF 393 40.2 µM | SN12C 27.9 µM | RPMI-8226 18.2 µM | 786-0 18.6 µM | PC-3 42.9 µM | TK-10 66.1 µM | UACC-257 57.8 µM | T47D > 100 µM | OVCAR-5 26.2 µM | OVCAR-8 25.5 µM

CCCCCc1cc(OC(=O)c2c(O)cc(OC)cc2CCCCC)cc(O)c1C(=O)O
inactive: CAKI-1 19.1 µM | HL-60 24.9 µM | NCI-H460 15.9 µM | A549 17.8 µM | RXF 393 16 µM | SN12C 15.9 µM | RPMI-8226 14.5 µM | 786-0 16.4 µM | TK-10 18.6 µM | HT-29 14.2 µM | OVCAR-5 19.1 µM | OVCAR-8 18.2 µM

COC(=O)C(=O)C(CC(=O)Nc1cccc(C(F)(F)F)c1)C(=O)OC (stereo not drawn)
inactive: HCT-116 > 100 µM | CAKI-1 > 100 µM | HL-60 > 100 µM | NCI-H460 > 100 µM | A549 > 100 µM | RXF 393 > 100 µM | SN12C > 100 µM | RPMI-8226 > 100 µM | 786-0 > 100 µM | TK-10 > 100 µM | OVCAR-5 > 100 µM | OVCAR-8 > 100 µM
